Data on 5 compounds can be found in article PMC2882332, “Species Used for Drug Testing Reveal Different Inhibition Susceptibility for 17beta-Hydroxysteroid Dehydrogenase Type 1” (PLoS ONE, 2010).

The first test concerns the target T1, marmoset 17β-HSD 1 (Callithrix jacchus, UniProt Q9GME2).
T1 sequence (Q9GME2 1-314): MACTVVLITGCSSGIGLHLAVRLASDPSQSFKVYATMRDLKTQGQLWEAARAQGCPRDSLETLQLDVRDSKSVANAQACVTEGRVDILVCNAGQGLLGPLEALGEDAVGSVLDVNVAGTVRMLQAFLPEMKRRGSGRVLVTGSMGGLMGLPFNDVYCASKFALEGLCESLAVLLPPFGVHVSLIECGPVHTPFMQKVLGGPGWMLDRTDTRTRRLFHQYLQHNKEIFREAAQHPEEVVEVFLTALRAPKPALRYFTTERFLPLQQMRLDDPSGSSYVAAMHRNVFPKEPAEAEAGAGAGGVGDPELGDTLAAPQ
Nature of the test: In vitro enzymatic activity, recombinant marmoset 17β-HSD 1.
Settings: not given
The class given is biochemical. The source says:
Full length cDNAs of several 17β-HSDs type 1 originating from different species were cloned either into the pQE30 vector (human 17β-HSD 1, coding for acc. no. NP_000404) for expression as His-Tag protein or into a modified pGex-2T vector [63] (mouse 17β-HSD 1, acc. no. NP_034605; rat 17β-HSD 1, acc. no. NP_036983; marmoset 17β-HSD 1, acc. no. AAG01115; porcine 17β-HSD 1, acc. no. NP_001121944) for expression as GST-fusion proteins. The marmoset 17β-HSD 1 enzyme sequence was updated by the missing N-terminal part (AF272013) and the new porcine sequence was submitted to GenBank (NP_001121944). Human 17β-HSDs 2, 4, 5 (AKR1C3, the latter kindly provided by Dr. T. Penning) and 7 were all cloned into the modified pGEX-2T vector. For 17β-HSD 4 only the SDR-domain converting the steroids was subcloned. Plasmids were transformed into E.coli BL21 DE3 Codon Plus RP (Stratagene) and enzyme expression was induced by 0.5 mM IPTG. After 4h incubation at 37°C with continuous shaking bacteria were pelleted by centrifugation at 10.000×g. Pellets were stored until use at −20°C.
The bacteria containing recombinant enzymes were resuspended in PBS and enzymatic assays were performed in 100 mM sodium phosphate buffer at pH 6.6 for the reductive reaction and at pH 7.7 for the oxidative reaction. […] All substrates were purchased from NEN/Perkin Elmer. The cofactors NADPH (Sigma; for reductive reactions) and NAD^+ (Serva, for oxidative reactions) were used at final concentrations of 0.5 mg/ml. […] The incubation at 37°C was stopped with 0.21 M ascorbic acid in methanol∶acetic acid 99∶1 (v∶v) after the time needed to convert approximately 30% of the substrate in a control assay with 1% DMSO, without inhibitor candidates. […] The solvent used was acetonitrile∶water (43∶57, v∶v) at a flow rate of 1 ml/min. Radioactivity was detected by online-scintillation counting (Berthold LB506D) after mixing with ReadyFlowIII (Beckman). Conversion was calculated from integration of substrate and product peaks. […] All assays were run in duplicates of two independent experiments and mean values are reported. The IC50 values were determined by the One Ligand Binding model of SigmaPlot kinetics module.
Turning to `Cc1cnc(NC(=O)CC[C@@H]2CC(=O)[C@@]3(C)CC[C@@H]4c5ccc(O)cc5CC[C@H]4[C@H]23)s1` [Compound 3], the concentration for half-maximal inhibition (IC50) (in general, the concentration that gives 50% inhibition) came out at 95.3 nM.

The test is the same for the next values; noted with them: marmoset 17β-HSD 1; 2 µM compound; 15 nM 3H-estrone; read-out: Observed % inhibition.
For `C[C@]12CC[C@@H]3c4ccc(O)cc4CC[C@H]3[C@@H]1[C@@H](CNC(=O)c1ccc(F)cc1)CC2=O` [Compound 1], the inhibition – broadly, the drop in the measured response relative to a control, in per cent – at 2 µM stood at 30.6%. With `C[C@]12CC[C@@H]3c4ccc(O)cc4CC[C@H]3[C@@H]1[C@@H](CCCC(=O)N1CCOCC1)CC2=O` [Compound 2], the inhibition at 2 µM turned out to be 60.3%. On to `Cc1cnc(NC(=O)CC[C@@H]2CC(=O)[C@@]3(C)CC[C@@H]4c5ccc(O)cc5CC[C@H]4[C@H]23)s1` [Compound 3], for which the inhibition at 2 µM was determined as 98.5%.

As to `COc1ccc(-c2cn(CCC[C@H]3CC(=O)[C@@]4(C)CC[C@@H]5c6ccc(O)cc6CC[C@H]5[C@H]34)nn2)cc1` [Compound 4], the inhibition at 2 µM is 85.2%. As to `C[C@]12CC[C@@H]3c4ccc(O)cc4CC[C@H]3[C@@H]1C[C@H](CC(=O)NCc1cccnc1)C2=O` [Compound 5, reference compound], the inhibition at 2 µM worked out at 45.6%.
